The values that follow are results of earlier work, collected in patent publication US20210023267A1, “POLYMER-PERMEATED GRAFTS AND METHODS OF MAKING AND USING THE SAME” (BIOAESTHETICS CORPORATION, priority 2018, published 2021).

For the data set, the system named is S. aureus.

Structures are written as SMILES. ≈ marks a conversion by molar mass, not a printed value. Like-named read-outs stand apart in the source and are kept apart here.

Consider `CN[C@H](CC(C)C)C(=O)N[C@H]1C(=O)N[C@@H](CC(N)=O)C(=O)N[C@H]2C(=O)N[C@H]3C(=O)N[C@H](C(=O)N[C@H](C(=O)O)c4cc(O)cc(O)c4-c4cc3ccc4O)[C@H](O)c3ccc(c(Cl)c3)Oc3cc2cc(c3O[C@@H]2O[C@H](CO)[C@@H](O)[C@H](O)[C@H]2O[C@H]2C[C@](C)(N)[C@H](O)[C@H](C)O2)Oc2ccc(cc2Cl)[C@H]1O` [vancomycin], for which the minimum inhibitory concentration (S. aureus) was 1 µg/mL (≈ 0.69 µM) and the minimum inhibitory concentration (S. aureus strains with complete resistance to vancomycin) was 16 µg/mL (≈ 11 µM).
